From publication PMC8779255, “Determining the Anticancer Activity of Sphingosine Kinase Inhibitors Containing Heteroatoms in Their Tail Structure” (Pharmaceutics, 2022)

Key:
Type in all cases: cell-based, human
[1] = system: PARP, caspase-3, Bcl-2, BAX in HCT116 cells; assay: Western blotting of apoptotic pathway-related proteins
Method: The cell lysate was prepared after successive treatment using mammalian protein extraction buffer (Organic buffer + 10 mM NaCl + detergent pH 7.5) mixed with 1% protease/phosphatase inhibitor cocktail; protein was quantified with BCA assay, boiled at 95 °C for 10 min by adding sample loading buffer, separated using SDS-PAGE, and transferred into methanol-activated PVDF membrane. Primary antibodies were probed overnight in PVDF membrane at 4 °C and […] with subsequent HRP anti-mouse and anti-rabbit secondary antibodies at room temperature. Then, membranes were washed with TBST buffer, and images were detected by Amersham Imager 680 (GE Healthcare; Leiden, WZ, The Netherlands) using ECL solution. Band intensities were analyzed and quantified using Image J software (version 1.53i).

HT29 cells = assay: Annexin V-FITC/PI staining, flow cytometry; details: HT29, 10 and/or 20 µM, 24 h
Method: (§1) After treating HT29 and HCT116 cells with compounds 10, 11, 13 and FTY720 according to the manufacturer’s instruction, the annexin V and PI staining technique was employed to determine apoptosis in the cells. Briefly, cells (2.5 × 10^5 cells/well) were seeded in 12-well plates and treated with 10 and/or 20 µM of compounds for 24 h. Cells were collected using trypsin-EDTA and stained with annexin V-FITC dye for 15 min at room temperature, followed by PI staining for 20 min and analyzed by flow cytometer (MACSQuant Analyzer 10; Miltenyi Biotec, Bergisch Gladbach, Germany). The data was analyzed using MACSQuantify^TM version 2.8 software (Miltenyi Biotec, Bergisch Gladbach, Germany) and presented as early apoptosis, late apoptosis, or combined apoptosis percentage. Each experiment was repeated three times independently (n = 6).

HCT116 cells = assay: Annexin V-FITC/PI staining, flow cytometry; details: HCT116, 10 and/or 20 µM, 24 h
Method: as §1

## CCCCCCCOc1ccc(CCN2CCN(CCO)CC2)cc1 [Compound 10, 2-(4-(4-(Heptyloxy)phenethyl)piperazin-1-yl)ethanol]
[1]; HCT116, 10 and 20 µM
  expression of antiapoptotic Bcl-2 protein: decreased the expression of antiapoptotic Bcl-2 protein
  expression of proapoptotic protein BAX: increased the expression of proapoptotic protein BAX
[1]; HCT116, 10 and 20 µM, vs nontreated control
  cleavage of caspase-3: effectively increased the cleavage
[1]; HCT116, vs nontreated groups
  cleaved PARP level: increased cleaved PARP level
HT29 cells
  apoptosis (annexin V assay): induced apoptosis
HCT116 cells
  apoptosis (annexin V assay): induced apoptosis
